Data on twelve compounds can be found in patent US8871762B2, “Plant disease controlling composition and method for controlling plant disease” (Sumitomo Chemical Company, Limited, priority 2010, dated 2014).

Where two headings read alike, the source gives them in different places.

The assay has as its system gray mold fungus (Botrytis cinerea). The assay is described as follows: Cucumber leaf disk preventive test against gray mold fungus. Type of assay: in vivo. Particulars: for pest or weed control at 0.5 ppm / pest or weed control at 5 ppm: Botrytis cinerea, foliar, 96 h, read-out: preventive value (%). As to the method:
True leaf of cucumber is punched out with cork borer to 13 mm in diameter to prepare a leaf disk. In 24 well microwell plate that is dispensed with 1 ml 0.8% water agar, the leaf disk is placed such that the upper side of the leaf is in an upward direction. Thereto is added 20 micro liter a testing solution prepared by mixing a dimethyl sulfoxide solution of the present compound (racemate) and a dimethyl sulfoxide solution of isopyrazam, boscalid or penthiopyrad to a predetermined concentration to treat the leaf disk.
After confirming that the testing medical solution is dried, conidium of gray mold fungus (Botrytis cinerea) is suspended into potato dextrose broth (DIFCO) in a density of about 10^5 conidium/mL and is then subjected to a spray inoculation. After leaving to stand the leaf disk in a growth chamber set up at 15° C. for four days, an onset area on the leaf is measured and then calculated an onset area rate (hereinafter, referred to as an onset area rate of treated group).
The same operation is carried out with 20 micro liter water instead of 20 micro liter a testing medicine solution to calculate an onset area rate (hereinafter, referred to an onset area rate of non-treated group).
A preventive value is calculated from the above onset area rate of treated group and the onset area rate of non-treated group by the following equation: Preventive value(%)=100×(A−B)/A
A: an onset area rate of treated group
B: an onset area rate of non-treated group […]
For comparison, the same operations as described in Test Example 1 are carried out with the exception that the testing medicine solution is substituted with a predetermined concentration of each dimethyl sulfoxide solution of isopyrazam, boscalid or penthiopyrad, so as to calculate respective preventive values.

The mark [1] stands for this setting: carboxamide compound alone, 0.5 ppm, cucumber leaf disk, 15° C., four days.
The mark [2] stands for this setting: carboxamide compound alone, 5.0 ppm, cucumber leaf disk, 15° C., four days.

Turning to `O=C(Nc1ccccc1-c1ccc(Cl)cc1)c1cccnc1Cl` [boscalid], under setting [1], the pest or weed control at 0.5 ppm was found to be 49%. The pest or weed control at 5 ppm under setting [2] was 56%.

Consider `CC(C)CC(C)c1sccc1NC(=O)c1cn(C)nc1C(F)(F)F` (stereo not drawn) [penthiopyrad], for which the pest or weed control at 0.5 ppm under setting [1] stood at 39%. Besides, the pest or weed control at 5 ppm under setting [2] amounted to 45%.

In the case of `Cc1nn(C)c(Cl)c1C(=O)Nc1cccc2c1C(C)OC2(C)C` (stereo not drawn) [furametpyr], the “preventive value (%)” value runs as follows: under setting [1], 15%; under setting [2], 20%.

As for `COC(=O)[C@@H](C)N(C(=O)Cc1ccccc1)c1c(C)cccc1C` [benalaxyl-M], the “preventive value (%)” value is, setting by setting: under setting [1], 10%; under setting [2], 15%.

In the case of `O=C(NCCc1ncc(C(F)(F)F)cc1Cl)c1ccccc1C(F)(F)F` [fluopyram], the pest or weed control at 0.5 ppm under setting [1] turned out to be 35%. Further, under setting [2], the pest or weed control at 5 ppm was 45%.

`N#Cc1ccccc1NC(=O)c1snc(Cl)c1Cl` [isotianil]: the “preventive value (%)” value under setting [1] turned out to be 10% and the “preventive value (%)” value under setting [2] came out at 25%.

With `COCC(=O)N(c1c(C)cccc1C)N1CCOC1=O` [oxadixyl], the pest or weed control at 0.5 ppm was 10% and the pest or weed control at 5 ppm was 15%.

Consider `CC1(C(=O)Nc2ccc(O)c(Cl)c2Cl)CCCCC1` [fenhexamid], for which the pest or weed control at 0.5 ppm under setting [1] was determined as 20%. The pest or weed control at 5 ppm under setting [2] was found to be 57%.

Take `COc1ccc(C(=CC(=O)N2CCOCC2)c2ccc(Cl)cc2)cc1OC` [dimethomorph]: the pest or weed control at 0.5 ppm under setting [1] amounted to 10%. Besides, the pest or weed control at 5 ppm under setting [2] amounted to 15%.

Regarding `C[C@@H](NC(=O)C(C#N)C(C)(C)C)c1ccc(Cl)cc1Cl` (stereo partly drawn) [diclocymet], the pest or weed control at 0.5 ppm is 10% and the pest or weed control at 5 ppm was 15%.

With `CC(C)C1C2CCC1c1c(NC(=O)c3cn(C)nc3C(F)F)cccc12` (stereo not drawn) [isopyrazam], the “preventive value (%)” value by setting is: under setting [1], 20%; under setting [2], 40%.

In the case of `O=C(Nc1ccccc1)N(Cc1ccc(Cl)cc1)C1CCCC1` [pencycuron], the pest or weed control at 0.5 ppm under setting [1] came to 10%. The pest or weed control at 5 ppm under setting [2] turned out to be 15%.
